Data on 13 compounds can be found in patent US20120009151A1, “Triazines And Related Compounds Having Antiviral Activity, Compositions And Methods Thereof” (priority 2007, published 2012).

One data set concerns H77/JFH-1 chimeric HCVcc. In words: HCV cell culture (HCVcc) model, Renilla luciferase. It counts as cell-based. Conditions: H77/JFH-1 HCVcc, Huh 7.5 cells, Renilla luciferase 72 hours post-infection.

Counter-ions that a name gives are not always drawn.

The melting point is the temperature, or range, at which the solid turns liquid. In general, EC50 refers to the concentration needed to bring the measured effect to its halfway point.

As to `Fc1ccc(CNc2nc(OCC(F)(F)F)nc(-c3ccccc3)n2)cc1`, the melting point is 170 to 172 °C.
The compound `Fc1ccc(CNc2nc(NCc3ccccc3F)nc(OCC(F)(F)F)n2)cc1` yielded a melting point of 105 to 107 °C.
Regarding `Fc1ccc(CNc2nc(OCC(F)(F)F)nc(Oc3cccc(C(F)(F)F)c3)n2)cc1`, the melting point was in the range of 107 to 109 °C.
As to `Fc1ccc(CNc2nc(OCc3ccccc3)nc(OCC(F)(F)F)n2)cc1`, the melting point is 101 to 103 °C.
The same measure, in the same setting: the value for `CC(C)N1CCC(Nc2nc(NCc3ccc(F)cc3)nc(OCC(F)(F)F)n2)C1` (stereo not shown) was 98 to 99 °C; that for `CCOc1nc(NCc2ccco2)nc(N2CCN(Cc3ccccn3)CC2)n1` was 115 to 117 °C; that for `Cc1ccc(CNc2nc(OCC(F)(F)F)nc(Oc3cccc(C(F)(F)F)c3)n2)o1` was 116 to 118 °C.
The same measure, in the same setting: the result for `Oc1ccc(Nc2nc(NCc3ccco3)nc(Oc3ccc(O)cc3)n2)cc1` reads 80 to 83 °C.
Regarding `Fc1ccc(CNc2nc(Nc3cccc(Cl)c3)nc(OCC(F)(F)F)n2)cc1`, the melting point lay within 148 to 150 °C.
`FC(F)(F)c1cccc(Nc2nc(NCc3ccco3)nc(OCc3ccncc3)n2)c1` registered a melting point of 124 to 126 °C.
Turning to `Oc1nc(NCc2ccc(F)cc2)nc(Nc2cccc(C(F)(F)F)c2)n1`, the melting point lay within 266 to 268 °C.
As to `CCNc1nc(NCCN2CCCC2)nc(Nc2ccc(OC)cc2)n1` (as salt: hydrochloride), the melting point fell in the range of 29 to 31 °C.
`C[C@@]1(O)[C@H](O)[C@@H](CO)O[C@H]1n1cnc2c(N)ncnc21` [Compound 2-CMA] yielded a 50% effective concentration (EC50) with H77/JFH-1 chimeric HCVcc of 92 nM.
